# Source: patent US20070026090A1, “Treatment and prevention of inflammatory disease and mitochondrial dysfunction with high dose selenium” (priority 2003, published 2007)
# Tests used:
# NRF-1 = assay: NRF1 mRNA in colon tissue (RT-PCR); format: in vivo, rat
# Procedure: Mitochondrial (mt) TFA, NRF1, and cytochrome c mRNA analysis: Total RNA was extracted from 50 to 100 mg tissue at a time using 1 ml of Tri Reagent® (Sigma-Aldrich Corp., St. Louis, Mo.) according to manufacturer's instructions. First strand cDNA synthesis was carried out using reverse-iTTM First Strand Synthesis from Advanced Biotechnologies (ABgene®, ABgene, Epsom, U.K.) was used according to the manufacturer's instructions. Target sequences were amplified in the PCR reaction as follows: each tube contained 37 ng of cDNA from cytochrome c, GAPDH, or 18S, 3 μl of specific primers, 12.5 μl of ready Mix and 6.5 μl water DEPC (for a total 25 μl in each tube).
# The PCR for cytochrome c, NRF1 and mtTFA was run at 95° C. for 5 min, 94° C. for 30 sec, 56° C. for 2 min, 72° C. for 1 min, back to stage 2 for 22, 26, 24 cycles, respectively, then 72° C. for 10 min, and 4° C. The products of the PCR were separated on a 1% agarose gel in TAE buffer with ethidium bromide. The electrophoresis took place in a BioRad device in 1×TAE buffer at 95 V for about 50 min (maximum mA). The size of the cDNA was determined by a 100-bp marker.
# Rat NFR-1: (Antisense) 5′-[…]-3′ (SEQ ID No. 13) corresponding to nucleotides 450 to 469 of rat NFR-1 (GenBank Accession No. XM231566).
# (Sense): 5′-[…] -3′ (SEQ ID No. 14). The expected PCR product was 461 bp, the actual 461 bp.
# 18S RNA and GAPDH = assay: Housekeeping transcripts 18S and GAPDH in colon tissue (RT-PCR); format: in vivo, rat; conditions: supplemented rats (FIG. 7A)
# UCP2 = UCP2 transcription and expression (RTPCR, Western blot); format: cell-based, murine
# Procedure: (§1) Cell culture: Murine J774.2 macrophages (kindly provided by Prof. Dov Zipori from the Weizmann Institute of Science) were grown in RPMI medium supplemented with 10% (w/v) fetal calf serum, penicillin (100 U/ml), streptomycin (100 μg/ml) and 1× glutamine at 37° C. in a humidified atmosphere consisting of 95% air and 5% CO2. Experiments were performed on cells at 60% confluence.
# Western blots (Sp1, MnSOD, UCP2): Cells were grown in six-well tissue culture plates, treated with selenium for 72 h and activated with LPS and IFN-γ for 24 h. The wells were washed with PBS, scraped and centrifuged
# (5 min. 2000 RPM), and lysed by addition of boiling hot lysis buffer (1% SDS, 1 mM sodium ortho-vanadate, 10 mM Tris pH 7.4) to the pellets. Protein content was measured (BIO RAD protein assay kit) and equalized. Sample buffer (containg SDS) was added and the samples were boiled. The samples were subjected to SDS-PAGE followed by western blot analysis. Separated proteins were transferred electrophoretically from the gel to a nitrocellulose membrane (Amersham International plc, Buckinghamshire, ENGLAND). The membrane was blocked in TBS (0.15 M NaCl/10 mM Tris/HCl, pH7.4) containing 5% (v/v) skimmed milk (Blotto), then incubated over night with primary antibodies at RT (diluted 1/2000 in blotto). After being washed six times in TBST [TBS containing 0.05% (v/v) Tween 20], the membrane was incubated for 2 h at room temperature with secondary antibody (diluted 1/5000 in blotto). Immunoreactive bands were detected with ECL western blotting detection reagents (Amersham Pharmacia Biotech, Buckingammshire England) and developed on film (Fuji super RX, Dusseldorf, Germany). Primary antibodies for Sp1 and MnSOD were from BD Transduction Laboratories (Becton Dickenson and Co., San Jose, Calif. USA) and for UCP2 from Alpha Diagnostics LTD (Warszaw, Poland). Secondary antibodies were from Jackson ImmunoResearch (Jackson Labs, Bar Harbor, Maine, USA).
# Reverse transcriptase-PCR (RTPCR): Total RNA was prepared and isolated by the Tri-Reagent method according to the manufacturer's protocol (Sigma, St. Louis Mo., USA). Total RNA (1 μg) was converted into cDNA using Reverse-iT first strand synthesis kit (Abgene, UK). Amplification of MnSOD and UCP2 sequences was performed by incubating 10 ng equivalents of DNA with the following oligonucleotide primers:
# Left (sense), 5′-[…]-3′ (SEQ ID NO:7) corresponding to nucleotides 372 to 392 of mouse mRNA (GenBank Accession No. NM 011671).
# Right (antisense) 5′[…]-3′ (SEQ ID NO: 8) corresponding to nucleotides 826 to 846 of mouse mRNA (GenBank Accession No. NM 011671). The expected PCR product was 474 bp. Actual PCR product was approximately 474 bp, measured on 1.25% agarose gel in TAE containing ethidium bromide.
# PCR was performed with 28 cycles (25 cycles for GAPDH) of 30 seconds at 96° C., 30 seconds at 58° C. and 1 min at 72° C. RTPCR products were analyzed on 1.3% (w/v) agarose gels.
# [1] = in vivo; cited from earlier work
# J774.2 macrophages = assay: Intracellular ROS (H2O2) production, DCF fluorescence; format: cell-based, murine
# Procedure: as §1
# Intracellular Radical Oxygen Species (ROS) (H2O2): Intracellular ROS were detected using dihydrodichlorofluorescein (H2DCF-DA). Cells exposed to different treatments were washed three times with PBS. Cells were centrifuged (2000 RPM, 5 min), resuspended in PBS and incubated with 25 μM H2DCF-DA for 30 min at 37° C. To detect intracellular fluorescence, the fluorochrome-loaded cells were excited using a 488-nm argon-ion laser in a flow cytometer. The dichlorofluorescein (DCF) emission was recorded at 530 nm. Data were collected from at least 10,000 cells. Alternatively, DCF fluorescence was recorded using a microfluorometer plate reader (GENios, Tecan, Austria). Cells were washed twice with PBS, then 25 μM H2DCF-DA was added and cells incubated for 30 min at 37° C. Following an additional wash, cells were lysed with PBS-0.2% Triton-X 100. Total fluorescence was recorded and calibrated according to protein content.
smiles,measurement,setting,value
[Se] [selenium],"NRF-1 levels in colon tissue, colitis-induced rats","NRF-1; 24 h after TNBS, supplemented (FIG. 17 lane 4), unsupplemented nearly 50% reduction",surpass that of healthy control rats
same,"NRF-1 levels in colon tissue, healthy rats",NRF-1; healthy supplemented rats (FIG. 17 lane 2),significantly enhances
same,18S and GAPDH transcription,18S RNA and GAPDH,without effecting
same,UCP2 transcripts and protein,"UCP2; 24 or 72 hours, concentration dependent, to a lesser extent than MnSOD",reduced the abundance
same,"UCP2 expression, activated macrophages","UCP2; exposure (72 hours) prior to activation, concentration dependent (FIG. 11)",decreased
same,average lifetime daily intake with biochemical and clinical symptoms,[1],greater than 1000 microgram
same,ROS (H2O2) production over the concentration range,"J774.2 macrophages; 0.5-30 μM, resting J774.2 (FIG. 8A)",reduced ROS production in a dose-dependent manner
same,ROS production in activated macrophages,"J774.2 macrophages; LPS 10 ng/ml + INFγ 50 units/ml 24 h, then 10 μM (FIG. 16A)",reduces
same,decrease in peroxide production (DCF fluorescence),"J774.2 macrophages; at 30 μM, resting J774.2 (FIG. 8A)",> 30%
